# Tests used:
# COX-2 [1] = assay: COX-2 expression in neuronal and astroglial cell-enriched cultures; assay type: cell-based; settings: assayed 12 hr after treatments
# Experimental: Relative pure hippocampal neurons (astroglial cells<2%), mixed neurons and astroglial cells (astroglial cells ˜10%), and astroglial cell-enriched (astroglial cells>95%), and NG108-15 cell cultures were made as described previously (Sang et al, 2005; Zhang and Chen, 2008).
# Primary hippocampal neurons (astroglial cells<2%), mixed neurons and astroglial cells (astroglial cells ˜10%), astroglial cell-enriched (astroglial cells>95%) and NG108-15 cells were cultured as described previously (Sang et al, 2005; Zhang and Chen, 2008). The extent of neurons and astroglial cells in culture were controlled by different treatments, which was estimated by using immunostaining with NeuN, a neuronal marker, glial fibrillary acidic protein (GFAP), an astrocytic marker, and OX-42, a microglial marker, in conjunction with DAPI staining.
# COX-2 [2] = assay: Hippocampal COX-2 expression in mice (immunoblot); assay type: in vivo
# PGE2 [3] = settings: earlier studies (Burstein et al., 1989; Fairbairn and Pickens; Perez-Reyes et al., 1991); cited from earlier work
# PGE2 [4] = assay: PGE2 assay in hippocampal tissue (enzyme immunoassay); assay type: in vivo, mice
# Excerpt: PGE2 in hippocampal tissue was detected using PGE2 enzyme immunoassay kit (Cayman Chemical, Ann Arbor, Mich.) according to the procedure described by the manufacturer (Zhang and Chen, 2008).
# spatial memory = assay: Morris water maze test (spatial memory); assay type: in vivo, mice; settings: NS398 10 mg/kg + Δ^9-THC 10 mg/kg once a day for 7 days
# Experimental: (§1) The classic Morris water maze and fear conditioning tests were performed to determine spatial and fear memory as described previously (Chen et al., 2012). The ‘open field’ test was conducted to detect the locomotor activity and the bar test was used to detect catalepsy (Egashira et al., 2007).
# The classic Morris water maze test was used to determine spatial memory as described previously (Chen et al., 2012). A circular water tank (diameter 120 cm and 75 cm in high) was filled with water and the water was made opaque with non-toxic white paint. A round platform (diameter 15 cm) was hidden 1 cm beneath the surface of the water at the center of a given quadrant of the water tank. COX-2 KO and WT mice received training in the Morris water maze for 5 days without any treatments (naïve). […] For each trial, the mouse was released from the wall of the tank and allowed to search, find, and stand on the platform for 10 seconds within the 60-second trial period. […] During the probe test, the platform was removed from the pool, and the task performances were recorded for 60 seconds by a video-camera and the task performances, including swimming paths, speed, and time spent in each quadrant using an EthoVision video tracking system (Noldus). The time spent in each quadrant was analyzed.
# [5] = test system: dendritic spines of CA1 pyramidal neurons; assay: Two-photon imaging of dendritic spines in CA1 pyramidal neurons; assay type: in vivo, mice; settings: NS398+Δ^9-THC
# Experimental: Morphology of dendritic spines in hippocampal CA1 pyramidal neurons was determined in GFP-expressing transgenic mice using a two-photon laser scanning microscope as described previously (Chen et al., 2012). Shape, size, and density of spines were measured from the three-dimensional reconstructions using NeuronStudio Version 0.9.92.
# Morphology of dendritic spines in hippocampal CA1 pyramidal neurons was determined in GFP-expressing transgenic mice treated with vehicle, Δ^9-THC or NS398+Δ^9-THC using a two-photon laser scanning microscope (Chameleon hands-free ultrafast Ti: sapphire laser with an Olympus scan head) with Olympus FLUOVIEW 300 software (Chen et al., 2012). Shape (thin, mushroom, or stubby), size, density, and volume of spines were measured from the three-dimensional reconstructions (Z stacks: 1μ step for the whole cell and 0.1μ step for a segment of dendrites) using AutoQuant X2 or 3D deconvolution plugin of Image J (http://bigwww.epfl.ch/algorithms/deconvolutionlab) and NeuronStudio (for 3D reconstruction of imaged dendritic spines, Version 0.9.92; http://research.mssm.edu/cnic/tools-ns.html, CNIC, Mount Sinai School of Medicine). […] The following parameters were used in analyzing and quantifying spines using NeuronStudio: Voxel size was set as 0.029*0.029*0.3 μm. […]
# fear memory = assay: Fear conditioning test (contextual memory); assay type: in vivo, mice; settings: NS398 10 mg/kg + Δ^9-THC 10 mg/kg once a day for 7 days
# Experimental: as §1
# Hippocampus-dependent contextual memory was determined using a fear-conditioning working-station (Coulbourn Instruments, Allentown, Pa.) and a one-trial protocol as describe previously (Chen et al., 2006a; 2006b). Mice were individually put into the shock chamber and allowed to freely explore the environment for 150 seconds. Immediately after this, a tone at 90 dB and 2,800 Hz (CS) was delivered for 30 seconds, and at the last 2 seconds a foot shock at 0.8 mA was delivered to the mice for 2 seconds (US). After the pairing of CS/US, mice were allowed to stay in the chamber for another 30 seconds and then returned to their home cages. Then the animals started receiving vehicle, Δ^9-THC (10 mg/kg), NS398 (10 mg/kg), Δ^9-THC+NS398 once a day for 7 days. Fear memory test was conducted 24 hours after the cessation of the last injections. For contextual conditioning, mice were individually put back into the chamber where they received the shock and the freezing response was recorded for 5 minutes with a sampling method at an interval of 5 seconds. […]
# GluA1, GluN2A, GluN2B = assay: Immunostaining of synaptic and extrasynaptic glutamate receptor subunits in hippocampal CA1; settings: NS398+Δ^9-THC
# [6] = test system: hippocampal LTP at CA3-CA1 and perforant path synapses; assay: Hippocampal LTP (fEPSP recordings in slices, theta-burst stimulation); assay type: in vivo, mice
# Experimental: Hippocampal LTP both at CA3-CA1 and perforant path synapses were recorded in acutely hippocampal slices and induced by a theta-burst stimulation (TBS) as described previously (Hoffman et al., 2007).
# Hippocampal slices were prepared from mice as described previously (Chen et al., 2002; Chen et al., 2012; Fan et al., 2010). Briefly, after decapitation, brains were rapidly removed and placed in cold oxygenated (95% O2, 5% CO2) artificial cerebrospinal fluid (ACSF) containing: 125.0 NaCl, 2.5 KCl, 1.0 MgCl2, 25.0 NaHCO3, 1.25 NaH2PO4, 2.0 CaCl2, 25.0 glucose, 3 pyruvic acid, and 1 ascorbic acid. Slices were cut at a thickness of 350-400 μm and transferred to a holding chamber in an incubator containing ACSF at 36° C. for 0.5 to 1 hour, and maintained in an incubator containing oxygenated ACSF at room temperature (˜22-24° C.) for >1.5 h before recordings. Slices were then transferred to a recording chamber where they were continuously perfused with 95% O2, 5% CO2-saturated standard ACSF at ˜32-34° C. Individual pyramidal and dentate granule neurons were viewed with an upright microscope (Olympus BX51WI) fitted with a 60× water-immersion objective and differential interference contrast (DIC) optics.
# Field EPSP (fEPSP) recordings both at CA3-CA1 and perforant path synapses in response to stimuli at a frequency of 0.05 Hz were made using an Axoclamp-2B patch-clamp amplifier (Molecular Devices, CA) in bridge mode. Recording pipettes were pulled from borosilicate glass with a micropipette puller (Sutter Instrument), filled with artificial ACSF (2-4 MΩ). […]
# [7] = test system: synaptic release of glutamate; assay: Miniature spontaneous EPSCs (mEPSCs) in cultured hippocampal neurons; assay type: cell-based; settings: NS398 10 μM + Δ^9-THC 3 μM; 24 hrs
compound,measurement,setting,value
Cc1c(C(=O)NN2CCCCC2)nn(-c2ccc(Cl)cc2Cl)c1-c1ccc(Cl)cc1 [Rimonabant],effect on Δ^9-THC-induced increase in COX-2 in neurons and astroglial cells in culture,COX-2 [1],blocked
same,effect on Δ^9-THC-induced increase in COX-2 in the hippocampus,"COX-2 [2]; RIM 5 mg/kg 30 min prior to Δ^9-THC 10 mg/kg, detected 4 hr after Δ^9-THC",blocked
COc1ccc2c(c1)c(CC(=O)O)c(C)n2C(=O)c1ccc(Cl)cc1 [indomethacin],effect on marijuana- or Δ^9-THC-induced elevation of PGE2 in circulation and the brain,PGE2 [3],could be antagonized
"CCCCCCC(C)(C)c1ccc([C@@H]2C[C@H](O)CC[C@H]2CCCO)c(O)c1 [CP55,940]",hippocampal PGE2 production after cannabinoid injection,"PGE2 [4]; 10 mg/kg, detected 4 hrs after injection",more pronounced effects on COX-2 expression and PGE2 synthesis
same,hippocampal COX-2 expression after cannabinoid injection,"COX-2 [2]; single i.p. injection, CP55,940 10 mg/kg, detected 4 hrs",more pronounced effects on COX-2 expression and PGE2 synthesis
CS(=O)(=O)Nc1ccc([N+](=O)[O-])cc1OC1CCCCC1 [NS398],effect on Δ^9-THC-impaired spatial memory,spatial memory,occluded by COX-2 inhibition
same,effect on Δ^9-THC-decreased dendritic spine density,[5],prevented by inhibition of COX-2
same,effect on Δ^9-THC-impaired fear memory,fear memory,attenuated by COX-2 inhibition
same,"effect on CP55,940-induced increase in PGE2",PGE2 [4]; NS398 10 mg/kg 30 min prior to CP 10 mg/kg,could be blocked
same,effect on Δ^9-THC-decreased glutamate receptor expression,"GluA1, GluN2A, GluN2B",prevented by inhibition of COX-2
same,effect on LPS-reduced hippocampal LTP,[6]; LPS 3 mg/kg + NS398 10 mg/kg once a day for 7 days,prevented
same,effect on Δ^9-THC-decreased hippocampal LTP,"[6]; NS398 10 mg/kg 30 min before Δ^9-THC 10 mg/kg, 7 days, CA3-CA1 and perforant path",rescued decreased hippocampal LTP
same,effect on Δ^9-THC-enhanced synaptic release of glutamate,[7],blocked by inhibition of COX-2

# Reference: patent publication US9833433B1, “Compositions, methods of use, and methods of treatment” (priority 2013, dated 2017)
